The target in test [1] is T1, Cbl-b (Homo sapiens, UniProt Q13191).
T1 construct: biotin (biotinylated)
The test can be described thus: Cbl-b probe displacement HTRF binding assay. To be noted: 0.4 nM biotinylated Cbl-b, 150 nM BODIPY probe. The gist of the method: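 Probe-displacement HTRF in Hepes/NaCl/Triton/TCEP/BSA buffer at room temperature: compound dilutions (to 10 μM) incubated 60 min with 0.4 nM biotin-Cbl-b, 150 nM BODIPY probe added for 15 min, Tb-streptavidin read. Signal normalised to DMSO and no-protein controls; IC50 from four-parameter curve.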

The subject of test [2] is Jurkat cells. The test can be described thus: IL-2 secretion assay in CD3/CD28-activated Jurkat cells (AlphaLISA). The class given is cell-based, human. To be noted: Homo sapiens, CD3/CD28 T Cell Activator, 24 h, IL-2 AlphaLISA. The essentials:
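IL-2 release quantified by AlphaLISA in supernatants after 24 h CD3/CD28 activation at 37° C. Compounds, 10 μM to 300 pM final in 1:2 steps, were added to 50,000 Jurkat cells/well 1 h before activation; 4-parameter fit gave EC50.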

T1 sequence (Q13191 whole entry, species assumed): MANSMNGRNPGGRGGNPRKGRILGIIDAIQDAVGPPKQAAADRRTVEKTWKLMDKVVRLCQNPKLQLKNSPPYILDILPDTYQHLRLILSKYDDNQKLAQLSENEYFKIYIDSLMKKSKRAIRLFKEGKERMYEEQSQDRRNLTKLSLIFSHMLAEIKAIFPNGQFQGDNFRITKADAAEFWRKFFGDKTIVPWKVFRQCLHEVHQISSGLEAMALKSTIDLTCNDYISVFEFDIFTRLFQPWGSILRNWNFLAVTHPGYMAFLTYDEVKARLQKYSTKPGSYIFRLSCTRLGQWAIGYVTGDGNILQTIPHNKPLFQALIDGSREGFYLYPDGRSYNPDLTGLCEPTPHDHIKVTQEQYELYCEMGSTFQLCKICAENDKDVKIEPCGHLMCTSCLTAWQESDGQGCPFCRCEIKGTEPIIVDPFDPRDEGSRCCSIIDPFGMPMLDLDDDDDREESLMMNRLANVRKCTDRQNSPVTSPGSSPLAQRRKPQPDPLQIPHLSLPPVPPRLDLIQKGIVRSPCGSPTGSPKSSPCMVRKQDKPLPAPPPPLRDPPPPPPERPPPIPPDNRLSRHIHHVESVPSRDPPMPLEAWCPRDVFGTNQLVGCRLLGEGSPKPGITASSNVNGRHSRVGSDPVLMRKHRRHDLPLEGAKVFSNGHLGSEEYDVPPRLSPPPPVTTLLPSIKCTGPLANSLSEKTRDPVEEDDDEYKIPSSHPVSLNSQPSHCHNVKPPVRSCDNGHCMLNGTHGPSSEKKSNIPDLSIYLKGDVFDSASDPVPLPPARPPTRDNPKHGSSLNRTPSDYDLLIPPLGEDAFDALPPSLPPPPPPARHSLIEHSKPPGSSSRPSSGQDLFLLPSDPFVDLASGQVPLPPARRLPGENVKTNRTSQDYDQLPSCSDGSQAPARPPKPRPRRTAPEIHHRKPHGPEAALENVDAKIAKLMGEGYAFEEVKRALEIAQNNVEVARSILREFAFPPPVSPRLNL

The term IC50 denotes the midpoint of a concentration-inhibition curve. A high value points to a need for much substance. The EC50 is the concentration giving half of the maximal effect. A higher EC50 goes with weaker potency. As for `Cn1ccnc1-c1cc(F)ccc1-c1cc(C2CC2)nc(-n2cc(C3CC3)c3cc(CN4C[C@H]5C[C@@H]4CO5)[nH]c3c2=O)c1` [Example 60, 2-({(1R,4R)-2-oxa-5-azabicyclo[2.2.1]hept-5-yl}methyl)-4-cyclopropyl-6-{6-cyclopropyl-4-[4-fluoro-2-(1-methyl-2-imidazolyl)phenyl]-2-pyridyl}-1,6-dihydro-1,6-diaza-7-indenone], in test [1], the IC50 is < 100 nM. Also, in test [2], the EC50 was 100 to 1000 nM.
With `CO[C@H]1CCCN(Cc2cc3c(C4CC4)cn(-c4cc(-c5ccc(F)cc5-c5nccn5C)cc(C5CC5)n4)c(=O)c3[nH]2)C1` [Example 61, 2-{[(S)-3-methoxy-1-piperidyl]methyl}-4-cyclopropyl-6-{6-cyclopropyl-4-[4-fluoro-2-(1-methyl-2-imidazolyl)phenyl]-2-pyridyl}-1,6-dihydro-1,6-diaza-7-indenone], the concentration for half-maximal inhibition (IC50) in test [1] was < 100 nM. In test [2], the 50% effective concentration (EC50) was 100 to 1000 nM.
Regarding `Cn1ccnc1-c1cc(F)ccc1-c1cc(C2CC2)nc(-n2cc(C3CC3)c3cc(CNC(C)(C)C)[nH]c3c2=O)c1` [Example 62, 2-[(tert-butylamino)methyl]-4-cyclopropyl-6-{6-cyclopropyl-4-[4-fluoro-2-(1-methyl-2-imidazolyl)phenyl]-2-pyridyl}-1,6-dihydro-1,6-diaza-7-indenone], in test [1], the IC50 is < 100 nM. Besides, the EC50 in test [2] was < 100 nM.
In the case of `C[C@@H]1CN(Cc2cc3c(C4CC4)cn(-c4cc(-c5ccc(F)cc5-c5nccn5C)cc(C#N)n4)c(=O)c3[nH]2)CCO1` [Example 63, 6-(2-{[(R)-2-methyl-4-morpholinyl]methyl}-4-cyclopropyl-7-oxo-1,6-dihydro-1,6-diaza-6-indenyl)-4-[4-fluoro-2-(1-methyl-2-imidazolyl)phenyl]-2-pyridinecarbonitrile], in test [1], the IC50 was < 100 nM. For the same compound, in test [2], the concentration for a half-maximal effect (EC50) fell in the range of 100 to 1000 nM.
For `CCn1ccnc1-c1cc(F)ccc1-c1cc(C2CC2)nc(-n2cc(C3CC3)c3cc(CN4CCO[C@H](C)C4)[nH]c3c2=O)c1` [Example 64, 2-{[(R)-2-methyl-4-morpholinyl]methyl}-4-cyclopropyl-6-{6-cyclopropyl-4-[2-(1-ethyl-2-imidazolyl)-4-fluorophenyl]-2-pyridyl}-1,6-dihydro-1,6-diaza-7-indenone], in that order: < 100 nM and 100 to 1000 nM.
In the same order, the values of `C[C@@H]1CN(Cc2cc3c(C4CC4)cn(-c4cc(-c5c(F)cc(F)cc5-c5nccn5C)cc(C5CC5)n4)c(=O)c3[nH]2)CCO1` [Example 65, 2-{[(R)-2-methyl-4-morpholinyl]methyl}-4-cyclopropyl-6-{6-cyclopropyl-4-[4,6-difluoro-2-(1-methyl-2-imidazolyl)phenyl]-2-pyridyl}-1,6-dihydro-1,6-diaza-7-indenone] are < 100 nM and < 100 nM.
Take `C[C@@H]1CN(Cc2cc3c(C4CC4)cn(-c4cc(-c5cc(F)c(F)cc5-c5nccn5C)cc(C5CC5)n4)c(=O)c3[nH]2)CCO1` [Example 66, 2-{[(R)-2-methyl-4-morpholinyl]methyl}-4-cyclopropyl-6-{6-cyclopropyl-4-[4,5-difluoro-2-(1-methyl-2-imidazolyl)phenyl]-2-pyridyl}-1,6-dihydro-1,6-diaza-7-indenone]: in test [1], the concentration for half-maximal inhibition (IC50) was < 100 nM. The half-maximal effective concentration (EC50) in test [2] was in the range of 100 to 1000 nM.
Consider `Cn1cc(C(F)(F)F)nc1-c1cc(C#N)ccc1-c1cc(C2CC2)nc(-n2cc(C3CC3)c3cc(CNC4(C)CCC4)[nH]c3c2=O)c1` [Example 67, 4-(6-cyclopropyl-2-{4-cyclopropyl-2-[(1-methylcyclobutylamino)methyl]-7-oxo-1,6-dihydro-1,6-diaza-6-indenyl}-4-pyridyl)-3-[1-methyl-4-(trifluoromethyl)-2-imidazolyl]benzonitrile], for which, in test [1], the half-maximal inhibitory concentration (IC50) is < 100 nM. The compound further gave an EC50 in test [2] of 100 to 1000 nM.
On to `CC1(NCc2cc3c(C4CC4)cn(-c4cc(-c5ccc(C#N)cc5-c5nncn5C(F)F)cc(C5CC5)n4)c(=O)c3[nH]2)CCC1` [Example 68, 4-(6-cyclopropyl-2-{4-cyclopropyl-2-[(1-methylcyclobutylamino)methyl]-7-oxo-1,6-dihydro-1,6-diaza-6-indenyl}-4-pyridyl)-3-[4-(difluoromethyl)-4H-1,2,4-triazol-3-yl]benzonitrile], for which the 50% inhibitory concentration (IC50) in test [1] is < 100 nM. Moreover, in test [2], the EC50 is < 100 nM.
For the compound `C[C@H]1CCCN(Cc2cc3c(C4CC4)cn(-c4cc(-c5ccc(C#N)cc5-c5nncn5C(F)F)cc(C5CC5)n4)c(=O)c3[nH]2)C1` [Example 69, 4-[2-(2-{[(S)-3-methyl-1-piperidyl]methyl}-4-cyclopropyl-7-oxo-1,6-dihydro-1,6-diaza-6-indenyl)-6-cyclopropyl-4-pyridyl]-3-[4-(difluoromethyl)-4H-1,2,4-triazol-3-yl]benzonitrile], the IC50 in test [1] was < 100 nM. Moreover, the EC50 in test [2] is < 100 nM.
For `O=c1c2[nH]c(CN[C@H]3CCC[C@H]3O)cc2c(C2CC2)cn1-c1cc(F)cc(-c2ccc(F)cc2-c2nncn2C(F)F)c1` [Example 70, 2-{[(1S,2R)-2-hydroxycyclopentylamino]methyl}-4-cyclopropyl-6-{2′-[4-(difluoromethyl)-4H-1,2,4-triazol-3-yl]-4′,5-difluoro-3-biphenylyl}-1,6-dihydro-1,6-diaza-7-indenone], in test [1], the half-maximal inhibitory concentration (IC50) is < 100 nM. In addition, the 50% effective concentration (EC50) in test [2] is < 100 nM.
Consider `Cc1ocnc1-c1cc(C#N)ccc1-c1cc(C2CC2)nc(-n2cc(C3CC3)c3cc(CNC4(C)CCC4)[nH]c3c2=O)c1` [Example 71, 4-(6-cyclopropyl-2-{4-cyclopropyl-2-[(1-methylcyclobutylamino)methyl]-7-oxo-1,6-dihydro-1,6-diaza-6-indenyl}-4-pyridyl)-3-(5-methyl-1,3-oxazol-4-yl)benzonitrile], for which the IC50 in test [1] is < 100 nM. Moreover, the EC50 in test [2] was < 100 nM.
With `CC1(NCc2cc3c(C4CC4)cn(-c4cc(-c5ccc(C#N)cc5-c5ncccc5C(F)(F)F)cc(C5CC5)n4)c(=O)c3[nH]2)CCC1` [Example 73, 4-(6-cyclopropyl-2-{4-cyclopropyl-2-[(1-methylcyclobutylamino)methyl]-7-oxo-1,6-dihydro-1,6-diaza-6-indenyl}-4-pyridyl)-3-[3-(trifluoromethyl)-2-pyridyl]benzonitrile], in test [1], the IC50 was < 100 nM. For the same compound, the EC50 in test [2] fell in the range of 100 to 1000 nM.
As for `Cc1cccnc1-c1cc(C#N)ccc1-c1cc(C2CC2)nc(-n2cc(C3CC3)c3cc(CN4CCC[C@H](C)C4)[nH]c3c2=O)c1` [Example 74, 4-[2-cyclopropyl-6-[4-cyclopropyl-2-[[(3S)-3-methylpiperidin-1-yl]methyl]-7-oxo-1H-pyrrolo[2,3-c]pyridin-6-yl]pyridin-4-yl]-3-(3-methylpyridin-2-yl)benzonitrile], in test [1], the concentration for half-maximal inhibition (IC50) was < 100 nM. In addition, the EC50 in test [2] lay within 100 to 1000 nM.
As to `Cc1ccnnc1-c1cc(C#N)ccc1-c1cc(C2CC2)nc(-n2cc(C3CC3)c3cc(CNC4(C)CCC4)[nH]c3c2=O)c1` [Example 75, 4-[2-Cyclopropyl-6-[4-cyclopropyl-2-[[(1-methylcyclobutyl)amino]methyl]-7-oxo-1H-pyrrolo[2,3-c]pyridin-6-yl]pyridin-4-yl]-3-(4-methylpyridazin-3-yl)benzonitrile], in test [1], the IC50 was < 100 nM. In addition, the 50% effective concentration (EC50) in test [2] is < 100 nM.
Turning to `Cc1ccnnc1-c1cc(C#N)ccc1-c1cc(C2CC2)nc(-n2cc(C3CC3)c3cc(CNC4(CO)CCC4)[nH]c3c2=O)c1` [Example 76, 4-[2-Cyclopropyl-6-[4-cyclopropyl-2-[[[1-(hydroxymethyl)cyclobutyl]-amino]methyl]-7-oxo-1H-pyrrolo[2,3-c]pyridin-6-yl]pyridin-4-yl]-3-(4-methylpyridazin-3-yl)benzonitrile], in test [1], the half-maximal inhibitory concentration (IC50) was < 100 nM. The concentration for a half-maximal effect (EC50) in test [2] is < 100 nM.
With `Cc1ccnnc1-c1cc(C#N)ccc1-c1cc(C2CC2)nc(-n2cc(C3CC3)c3cc(CN4CCC[C@H](C)C4)[nH]c3c2=O)c1` [Example 77], in test [1], the IC50 is < 100 nM. The EC50 in test [2] is < 100 nM.
In the case of `Cc1cc(-c2ccc(C#N)cc2-c2nccn2C)cc(-n2cc(C3CC3)c3cc(CN4CCC[C@H](C)C4)[nH]c3c2=O)n1` [Example 81, 4-[2-(2-{[(S)-3-methyl-1-piperidyl]methyl}-4-cyclopropyl-7-oxo-1,6-dihydro-1,6-diaza-6-indenyl)-6-methyl-4-pyridyl]-3-(1-methyl-2-imidazolyl)benzonitrile], the 50% inhibitory concentration (IC50) in test [1] is < 100 nM. Besides, the half-maximal effective concentration (EC50) in test [2] was < 100 nM.
For the compound `COc1cc(-c2ccc(F)cc2-c2nccn2C)cc(-n2cc(C3CC3)c3cc(CN4CCC[C@H](C)C4)[nH]c3c2=O)n1` [Example 82, 4-Cyclopropyl-6-[4-[4-fluoro-2-(1-methylimidazol-2-yl)phenyl]-6-methoxypyridin-2-yl]-2-[[(3S)-3-methylpiperidin-1-yl]methyl]-1H-pyrrolo[2,3-c]pyridin-7-one], the IC50 in test [1] is < 100 nM. The EC50 in test [2] was < 100 nM.
`C[C@H]1CCCN(Cc2cc3c(C4CC4)cn(-c4cc(-c5ccc(C(F)(F)F)cc5-c5nccn5C)cc(C5CC5)n4)c(=O)c3[nH]2)C1` [Example 83, 4-Cyclopropyl-6-[6-cyclopropyl-4-[2-(1-methylimidazol-2-yl)-4-(trifluoromethyl)phenyl]pyridin-2-yl]-2-[[(3S)-3-methylpiperidin-1-yl]methyl]-1H-pyrrolo[2,3-c]pyridin-7-one]: the IC50 in test [1] is < 100 nM. In addition, the EC50 in test [2] was < 100 nM.
With `C[C@H]1CCCN(Cc2cc3c(C#N)cn(-c4cc(-c5ccc(C#N)cc5-c5nccn5C)cc(C5CC5)n4)c(=O)c3[nH]2)C1` [Example 84, 2-{[(S)-3-methyl-1-piperidyl]methyl}-6-{4-[4-cyano-2-(1-methyl-2-imidazolyl)phenyl]-6-cyclopropyl-2-pyridyl}-7-oxo-1,6-dihydro-1,6-diaza-4-indenecarbonitrile], the IC50 in test [1] was < 100 nM. The 50% effective concentration (EC50) in test [2] was < 100 nM.

For the origin of these results see patent US20250011318A1 (ARCUS BIOSCIENCES, INC., priority 2023, published 2025).
